Data: patent publication US20090304692A1, “TRIAZINE COMPOUNDS AS PI3 KINASE AND MTOR INHIBITORS” (Wyeth, priority 2008, published 2009)
Values joined by “and” are separate entries in the source; they are usually repeats but may differ in a detail not shown here. Equal values may be shown once. Read-outs that look alike come from different tables or passages of the source.

Experiments:
[1] = test system: human breast MDA-MB-361 tumor cell line; assay: In vitro cell culture growth assay (MTS), MDA-MB-361; assay type: cell-based; settings: Homo sapiens, MDA-MB-361, 72 h, MTS cell growth assay, three days after drug treatment, read-out: IC50 MDA-MB-361
PI3K-γ = PI3K-γ (Homo sapiens, UniProt P48736); assay: PI3K-gamma fluorescence polarization assay; settings: read-out: IC50 PI3Kγ
Human mTOR (FLAG-TOR) = Human mTOR (FLAG-TOR) (Homo sapiens, UniProt P42345); assay: mTOR kinase assay (DELFIA format, purified enzyme); assay type: biochemical
PI3K-α = PI3K-α (Homo sapiens, UniProt P42336); assay: PI3K-alpha fluorescence polarization assay; settings: read-out: IC50 PI3Kα
[2] = test system: human prostate PC3-mm2 tumor cell line; assay: In vitro cell culture growth assay (MTS), PC3-mm2; assay type: cell-based; settings: Homo sapiens, PC3MM2, 72 h, MTS cell growth assay, three days after drug treatment, read-out: IC50 PC3-mm2

Chain of PI3K-α (P42336 whole entry, species assumed): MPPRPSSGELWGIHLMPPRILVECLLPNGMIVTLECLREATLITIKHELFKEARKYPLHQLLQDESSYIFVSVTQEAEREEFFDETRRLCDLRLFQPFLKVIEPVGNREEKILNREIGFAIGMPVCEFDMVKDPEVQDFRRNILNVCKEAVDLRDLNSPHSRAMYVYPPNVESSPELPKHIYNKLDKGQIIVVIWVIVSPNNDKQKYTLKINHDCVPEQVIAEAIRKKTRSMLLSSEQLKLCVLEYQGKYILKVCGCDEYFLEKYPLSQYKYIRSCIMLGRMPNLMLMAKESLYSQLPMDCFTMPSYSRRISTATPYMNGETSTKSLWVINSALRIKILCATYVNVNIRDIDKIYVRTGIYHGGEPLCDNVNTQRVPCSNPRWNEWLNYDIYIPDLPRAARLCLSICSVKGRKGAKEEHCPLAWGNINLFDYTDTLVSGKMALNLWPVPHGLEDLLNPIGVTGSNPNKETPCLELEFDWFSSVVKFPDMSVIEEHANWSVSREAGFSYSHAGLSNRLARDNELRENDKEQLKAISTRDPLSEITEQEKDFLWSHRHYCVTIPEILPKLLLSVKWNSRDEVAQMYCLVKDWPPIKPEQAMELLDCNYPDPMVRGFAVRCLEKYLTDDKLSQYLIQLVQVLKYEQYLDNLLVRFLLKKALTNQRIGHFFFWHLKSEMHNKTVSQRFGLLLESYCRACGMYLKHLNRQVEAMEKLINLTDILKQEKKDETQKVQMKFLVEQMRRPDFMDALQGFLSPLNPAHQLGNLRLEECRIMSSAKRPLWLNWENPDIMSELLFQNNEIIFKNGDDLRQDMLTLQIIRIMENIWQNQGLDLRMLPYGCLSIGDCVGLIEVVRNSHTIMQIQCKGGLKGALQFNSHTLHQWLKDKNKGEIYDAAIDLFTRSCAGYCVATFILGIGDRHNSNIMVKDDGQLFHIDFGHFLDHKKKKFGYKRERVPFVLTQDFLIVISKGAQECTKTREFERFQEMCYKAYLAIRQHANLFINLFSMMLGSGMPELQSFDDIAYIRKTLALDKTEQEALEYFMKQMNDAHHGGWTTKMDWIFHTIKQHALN
Chain of PI3K-α (P27986 whole entry partner, species assumed): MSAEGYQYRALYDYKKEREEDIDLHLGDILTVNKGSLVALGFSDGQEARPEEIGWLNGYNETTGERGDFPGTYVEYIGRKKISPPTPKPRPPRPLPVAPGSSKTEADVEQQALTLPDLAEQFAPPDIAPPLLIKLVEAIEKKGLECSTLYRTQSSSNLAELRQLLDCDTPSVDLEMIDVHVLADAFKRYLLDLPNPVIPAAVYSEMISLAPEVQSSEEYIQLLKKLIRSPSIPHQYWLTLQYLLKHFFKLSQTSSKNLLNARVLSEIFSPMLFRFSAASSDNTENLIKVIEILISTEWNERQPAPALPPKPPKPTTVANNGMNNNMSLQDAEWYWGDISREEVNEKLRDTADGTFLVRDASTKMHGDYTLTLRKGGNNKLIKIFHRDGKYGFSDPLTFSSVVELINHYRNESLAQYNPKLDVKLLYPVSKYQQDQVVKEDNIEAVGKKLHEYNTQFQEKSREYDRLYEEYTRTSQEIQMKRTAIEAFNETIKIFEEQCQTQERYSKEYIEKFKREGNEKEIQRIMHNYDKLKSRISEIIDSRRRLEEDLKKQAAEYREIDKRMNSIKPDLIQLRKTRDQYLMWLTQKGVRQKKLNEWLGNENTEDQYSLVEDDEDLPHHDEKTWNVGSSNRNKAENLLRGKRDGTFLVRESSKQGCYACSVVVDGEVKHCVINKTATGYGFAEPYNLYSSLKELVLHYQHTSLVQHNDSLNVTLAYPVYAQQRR
Chain of Human mTOR (FLAG-TOR) (P42345 1360-2549 limits assumed): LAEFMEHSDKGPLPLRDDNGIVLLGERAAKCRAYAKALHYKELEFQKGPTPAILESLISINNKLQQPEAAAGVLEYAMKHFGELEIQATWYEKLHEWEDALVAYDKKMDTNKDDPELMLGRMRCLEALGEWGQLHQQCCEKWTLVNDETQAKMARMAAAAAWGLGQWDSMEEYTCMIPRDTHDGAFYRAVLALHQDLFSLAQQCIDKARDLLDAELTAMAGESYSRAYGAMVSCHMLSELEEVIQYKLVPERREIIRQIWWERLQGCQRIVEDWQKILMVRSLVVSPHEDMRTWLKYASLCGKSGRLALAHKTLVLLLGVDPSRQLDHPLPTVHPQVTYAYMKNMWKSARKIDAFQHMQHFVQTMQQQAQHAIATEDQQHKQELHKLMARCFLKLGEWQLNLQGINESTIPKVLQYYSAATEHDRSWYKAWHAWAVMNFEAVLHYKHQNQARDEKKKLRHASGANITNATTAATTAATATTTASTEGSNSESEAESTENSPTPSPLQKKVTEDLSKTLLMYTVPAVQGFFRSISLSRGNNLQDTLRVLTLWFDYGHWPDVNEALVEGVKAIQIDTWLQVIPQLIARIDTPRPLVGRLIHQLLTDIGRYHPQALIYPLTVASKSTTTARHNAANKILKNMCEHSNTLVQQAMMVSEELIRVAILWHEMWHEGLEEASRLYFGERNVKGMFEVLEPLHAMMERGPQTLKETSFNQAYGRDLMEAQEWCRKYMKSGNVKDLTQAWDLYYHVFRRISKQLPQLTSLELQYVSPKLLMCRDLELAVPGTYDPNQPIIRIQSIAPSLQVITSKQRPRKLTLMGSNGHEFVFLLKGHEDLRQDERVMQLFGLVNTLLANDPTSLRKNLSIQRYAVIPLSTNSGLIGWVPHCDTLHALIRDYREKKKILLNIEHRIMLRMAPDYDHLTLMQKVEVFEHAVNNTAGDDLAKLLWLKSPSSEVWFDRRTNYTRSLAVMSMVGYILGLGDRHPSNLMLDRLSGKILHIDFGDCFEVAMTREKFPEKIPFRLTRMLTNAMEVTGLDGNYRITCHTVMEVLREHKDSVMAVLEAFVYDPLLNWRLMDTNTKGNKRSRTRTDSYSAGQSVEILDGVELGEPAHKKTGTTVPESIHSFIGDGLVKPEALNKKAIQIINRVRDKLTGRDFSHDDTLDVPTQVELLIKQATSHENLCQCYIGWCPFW
Chain of PI3K-γ (P48736 whole entry, species assumed): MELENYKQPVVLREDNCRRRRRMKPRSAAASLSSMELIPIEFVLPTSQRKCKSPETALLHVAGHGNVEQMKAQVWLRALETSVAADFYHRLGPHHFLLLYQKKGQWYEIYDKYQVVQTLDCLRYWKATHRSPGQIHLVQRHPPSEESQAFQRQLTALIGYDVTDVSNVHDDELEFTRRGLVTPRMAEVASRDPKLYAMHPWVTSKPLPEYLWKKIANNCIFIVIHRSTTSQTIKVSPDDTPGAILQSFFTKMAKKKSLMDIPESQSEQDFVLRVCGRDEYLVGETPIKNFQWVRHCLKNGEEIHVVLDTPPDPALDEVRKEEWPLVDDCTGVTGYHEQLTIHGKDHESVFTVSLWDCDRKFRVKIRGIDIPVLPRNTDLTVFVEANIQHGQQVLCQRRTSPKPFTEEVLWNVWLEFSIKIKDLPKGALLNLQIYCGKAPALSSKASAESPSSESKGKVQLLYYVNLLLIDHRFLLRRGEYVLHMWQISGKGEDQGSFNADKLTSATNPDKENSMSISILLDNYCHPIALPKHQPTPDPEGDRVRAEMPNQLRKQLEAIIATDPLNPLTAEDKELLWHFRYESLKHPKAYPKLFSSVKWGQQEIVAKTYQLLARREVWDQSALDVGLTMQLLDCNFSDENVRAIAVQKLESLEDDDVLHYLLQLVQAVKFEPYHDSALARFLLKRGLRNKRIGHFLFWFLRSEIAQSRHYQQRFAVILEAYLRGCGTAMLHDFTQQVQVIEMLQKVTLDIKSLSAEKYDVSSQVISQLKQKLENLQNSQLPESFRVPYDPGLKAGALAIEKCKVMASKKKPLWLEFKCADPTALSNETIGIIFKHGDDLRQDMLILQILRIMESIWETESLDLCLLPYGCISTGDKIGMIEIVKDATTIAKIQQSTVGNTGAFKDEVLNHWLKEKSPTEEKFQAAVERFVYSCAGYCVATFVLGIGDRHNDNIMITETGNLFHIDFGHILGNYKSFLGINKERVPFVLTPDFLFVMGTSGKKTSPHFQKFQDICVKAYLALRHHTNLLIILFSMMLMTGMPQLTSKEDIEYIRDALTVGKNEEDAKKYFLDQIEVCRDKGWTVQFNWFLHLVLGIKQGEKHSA

SMILES | IC50 [1] [µM] | IC50 (PI3K-γ) [µM] | IC50 (Human mTOR (FLAG-TOR); read-out: IC50 mTOR) | IC50 (PI3K-α) [µM] | IC50 [2] [µM] | other results
O=C(Nc1ccccc1)Nc1ccc(-c2nc(N3CCOCC3)nc(N3CCOCC3)n2)cc1 [Example 3, 1-[4-(4,6-dimorpholin-4-yl-1,3,5-triazin-2-yl)phenyl]-3-phenylurea] | 0.045 | 0.027 | 0.00385 µM | 0.003 | 0.043 | 
Cc1ccc(NC(=O)Nc2ccc(-c3nc(N4CCOCC4)nc(N4CCOCC4)n3)cc2)cc1 [Example 5, 1-[4-(4,6-dimorpholin-4-yl-1,3,5-triazin-2-yl)phenyl]-3-(4-methylphenyl)urea] | 0.045 | 0.438 | 0.0063 µM | 0.017 | 0.043 | 
O=C(Nc1ccc(F)cc1)Nc1ccc(-c2nc(N3CCOCC3)nc(N3CCOCC3)n2)cc1 [Example 6, 1-[4-(4,6-dimorpholin-4-yl-1,3,5-triazin-2-yl)phenyl]-3-(4-fluorophenyl)urea] | 0.045 | 0.053 | 0.006 µM | 0.006 | 0.043 | 
COc1ccc(NC(=O)Nc2ccc(-c3nc(N4CCOCC4)nc(N4CCOCC4)n3)cc2)cc1 [Example 9, 1-[4-(4,6-dimorpholin-4-yl-1,3,5-triazin-2-yl)phenyl]-3-(4-methoxyphenyl)urea] | 0.102 | 0.065 | 0.004 µM | 0.01 | 0.161 | 
CC(C)(C)OC(=O)N1CC(Nc2nc(-c3ccc(NC(=O)Nc4ccc(F)cc4)cc3)nc(N3CCOCC3)n2)C1 [Example 13, tert-butyl 3-{[4-(4-{[(4-fluorophenyl)carbamoyl]-amino}phenyl)-6-morpholin-4-yl-1,3,5-triazin-2-yl]amino}azetidine-1-carboxylate] | 0.603 | 0.879 | 0.0115 µM | 0.051 | 0.845 | 
CC(C)(C)OC(=O)N1CC(Nc2nc(-c3ccc(NC(=O)Nc4ccccc4)cc3)nc(N3CCOCC3)n2)C1 [Example 14, tert-butyl 3-[(4-morpholin-4-yl-6-{4-[(phenylcarbamoyl)amino]phenyl}-1,3,5-triazin-2-yl)amino]azetidine-1-carboxylate] | 0.376 | 0.154 | 0.00845 µM | 0.025 | 0.59 | 
CC(C)(C)OC(=O)N1CC(Nc2nc(-c3ccc(NC(=O)Nc4cccnc4)cc3)nc(N3CCOCC3)n2)C1 [Example 15, tert-butyl 3-[(4-morpholin-4-yl-6-{4-[(pyridine-3-ylcarbamoyl)amino]phenyl}-1,3,5-triazin-2-yl)amino]azetidine-1-carboxylate] | 0.255 | 0.177 | 0.0025 µM | 0.023 | 0.328 | 
O=C(Nc1ccccc1)Nc1ccc(-c2nc(NC3CNC3)nc(N3CCOCC3)n2)cc1 [Example 17, 1-{4-[4-(azetidin-3-ylamino)-6-morpholin-4-yl-1,3,5-triazin-2-yl]phenyl}-3-phenylurea] | 0.501 | 0.09 | 0.014 µM | 0.008 | 0.994 | 
O=C(Nc1ccc(-c2nc(NC3CNC3)nc(N3CCOCC3)n2)cc1)Nc1cccnc1 [Example 18, 1-{4-[4-(azetidin-3-ylamino)-6-morpholin-4-yl-1,3,5-triazin-2-yl]phenyl}-3-pyridin-3-ylurea] | 2.66 | 0.071 | 0.036 µM | 0.009 | 7.1 | 
O=C(Nc1ccc(F)cc1)Nc1ccc(-c2nc(NC3CNC3)nc(N3CCOCC3)n2)cc1 [Example 19, 1-{4-[4-(azetidin-3-ylamino)-6-morpholin-4-yl-1,3,5-triazin-2-yl]phenyl}-3-(4-fluorophenyl)urea] | 1.03 | 0.206 | 0.039 µM | 0.023 | 1.6 | 
Cc1ccc(NC(=O)Nc2ccc(-c3nc(NC4CNC4)nc(N4CCOCC4)n3)cc2)cc1 [Example 20, 1-{4-[4-(azetidin-3-ylamino)-6-morpholin-4-yl-1,3,5-triazin-2-yl]phenyl}-3-(4-methylphenyl)urea] | > 10 | 0.258 | 0.0305 µM | 0.041 | > 10 | 
CC(C)(C)OC(=O)N1CC(Nc2nc(-c3ccc(NC(=O)Nc4ccncc4)cc3)nc(N3CCOCC3)n2)C1 [Example 21, tert-butyl 3-[(4-morpholin-4-yl-6-{4-[(pyridine-4-ylcarbamoyl)amino]phenyl}-1,3,5-triazin-2-yl)amino]azetidine-1-carboxylate] | 0.129 | 0.092 | 0.00175 µM | 0.022 | 0.246 | 
O=C(Nc1ccncc1)Nc1ccc(-c2nc(NC3CNC3)nc(N3CCOCC3)n2)cc1 [Example 22, 1-{4-[4-(azetidin-3-ylamino)-6-morpholin-4-yl-1,3,5-triazin-2-yl]phenyl}-3-pyridin-4-ylurea] | 1.42 | 0.142 | 0.00475 µM | 0.012 | 2.44 | 
O=C(Nc1ccccc1)Nc1ccc(-c2nc(N3CCOCC3)nc(N3CC4CCC(C3)O4)n2)cc1 [Example 23, 1-{4-[4-morpholin-4-yl-6-(8-oxa-3-azabicyclo[3.2.1]oct-3-yl)-1,3,5-triazin-2-yl]phenyl}-3-phenylurea] | 0.104 | 0.051 | 0.00205 µM | 0.018 | 0.147 | 
O=C(Nc1ccc(F)cc1)Nc1ccc(-c2nc(N3CCOCC3)nc(N3CC4CCC(C3)O4)n2)cc1 [Example 24, 1-(4-fluorophenyl)-3-{4-[4-morpholin-4-yl-6-(8-oxa-3-azabicyclo[3.2.1]oct-3-yl)-1,3,5-triazin-2-yl]phenyl}urea] | 0.122 | 0.099 | 0.0027 µM | 0.022 | 0.142 | 
Cc1ccc(NC(=O)Nc2ccc(-c3nc(N4CCOCC4)nc(N4CC5CCC(C4)O5)n3)cc2)cc1 [Example 25, 1-(4-methylphenyl)-3-{4-[4-morpholin-4-yl-6-(8-oxa-3-azabicyclo[3.2.1]oct-3-yl)-1,3,5-triazin-2-yl]phenyl}urea] | 0.264 | 0.105 | 0.00405 µM | 0.058 | 0.258 | 
O=C(Nc1ccncc1)Nc1ccc(-c2nc(N3CCOCC3)nc(N3C4CCC3COC4)n2)cc1 [Example 34, 1-{4-[4-morpholin-4-yl-6-(3-oxa-8-azabicyclo[3.2.1]oct-8-yl)-1,3,5-triazin-2-yl]phenyl}-3-pyridin-4-ylurea] | 0.028 | 0.095 | 0.00049 µM and 0.00048 µM | 0.009 | 0.041 | IC50 (PI3K-γ; listed as 669): 0.089 µM; IC50 (PI3K-α; listed as 669): 0.008 µM; IC50 ([2]; PC3-mm2 cells): 0.041 µM
NC(=O)c1ccc(NC(=O)Nc2ccc(-c3nc(N4CCOCC4)nc(N4C5CCC4COC5)n3)cc2)cc1 [Example 35, 4-[({4-[4-morpholin-4-yl-6-(3-oxa-8-azabicyclo[3.2.1]oct-8-yl)-1,3,5-triazin-2-yl]phenyl}carbamoyl)amino]benzamide] | 0.0225 | 0.054 | 0.00021 µM and 0.000212 µM | 0.006 | 0.0275 | IC50 (PI3K-γ; listed as 670): 0.053 µM; IC50 (PI3K-α; listed as 670): 0.005 µM; IC50 ([2]; PC3-mm2 cells): 0.0275 µM
O=C(Nc1ccc(-c2nc(N3CCOCC3)nc(N3C4CCC3COC4)n2)cc1)Nc1cccnc1 [Example 36, 1-{4-[4-morpholin-4-yl-6-(3-oxa-8-azabicyclo[3.2.1]oct-8-yl)-1,3,5-triazin-2-yl]phenyl}-3-pyridin-3-ylurea] | 0.073 | 0.15 | 0.00051 µM and 0.000505 µM | 0.017 | 0.098 | IC50 ([1]; MDA-MB-361 cells): 0.073 µM; IC50 (PI3K-γ; listed as 671): 0.15 µM; IC50 (PI3K-α; listed as 671): 0.0175 µM; IC50 ([2]; PC3-mm2 cells): 0.098 µM
O=C(Nc1ccc(F)cc1)Nc1ccc(-c2nc(N3CCOCC3)nc(N3C4CCC3COC4)n2)cc1 [Example 37, 1-(4-fluorophenyl)-3-{4-[4-morpholin-4-yl-6-(3-oxa-8-azabicyclo[3.2.1]oct-8-yl)-1,3,5-triazin-2-yl]phenyl}urea] | 0.098 | 0.155 |  | 0.039 | 0.176 | IC50 ([1]; MDA-MB-361 cells): 0.098 µM; IC50 (PI3K-γ; listed as 672): 0.154 µM; IC50 (Human mTOR (FLAG-TOR); IC50 mTOR): 0.00195 µM; IC50 (PI3K-α; listed as 672): 0.0395 µM; IC50 ([2]; PC3-mm2 cells): 0.176 µM
O=C(Nc1ccc(CO)cc1)Nc1ccc(-c2nc(N3CCOCC3)nc(N3C4CCC3COC4)n2)cc1 [Example 38, 1-[4-(hydroxymethyl)phenyl]-3-{4-[4-morpholin-4-yl-6-(3-oxa-8-azabicyclo[3.2.1]oct-8-yl)-1,3,5-triazin-2-yl]phenyl}urea] | 0.015 | 0.091 | 0.00028 µM and 0.00043 µM | 0.007 | 0.028 | IC50 (PI3K-γ; listed as 673): 0.0987 µM; IC50 ([2]; PC3-mm2 cells): 0.028 µM
O=C(Nc1ccc(CCO)cc1)Nc1ccc(-c2nc(N3CCOCC3)nc(N3C4CCC3COC4)n2)cc1 [Example 39, 1-[4-(2-hydroxyethyl)phenyl]-3-{4-[4-morpholin-4-yl-6-(3-oxa-8-azabicyclo[3.2.1]oct-8-yl)-1,3,5-triazin-2-yl]phenyl}urea] | 0.022 | 0.075 | 0.00032 µM and 0.000325 µM | 0.014 | 0.03 | IC50 (PI3K-γ; listed as 674): 0.0745 µM; IC50 ([2]; PC3-mm2 cells): 0.03 µM
